Data reported in PMC11868331, “A Phase 1b study of the OxPhos inhibitor ME-344 with bevacizumab in refractory metastatic colorectal cancer” (Investigational New Drugs, 2024).

Experiments:
[1] = ME-344 plasma pharmacokinetics, non-compartmental analysis; assay type: in vivo, human; conditions: for Cmax, Mean (%CV): ME-344 10 mg/kg 60-minute infusion
Method: Serial blood samples for ME-344 pharmacokinetic analyses were collected 5 min after the end of ME-344 infusion and at 1, 2, 3, 6 and 24 h after the completion of infusion on days 1 and 15 of cycle 1, and ME-344 plasma concentrations were determined using validated analytical methods. ME-344 pharmacokinetic parameters were estimated using actual sampling times by non-compartmental analysis.

solid tumors = test system: solid tumors; set-up: method as in PMID 25411085; conditions: cited from earlier work
[2] = test system: patients with ovarian and small cell lung cancer; set-up: method as in PMID 28283779; conditions: ME-344 at 10 mg/kg in combination with topotecan; cited from earlier work
[3] = test system: early HER2-negative breast cancer; set-up: method as in PMID 31597662; conditions: mitochondrial on-target effect; cited from earlier work
[4] = test system: panel of human cancer cells; conditions: cells representative of most major organ systems; preclinical screening studies; cited from earlier work
[5] = test system: PyMT breast cancer and Lewis lung carcinoma models; set-up: method as in PMID 27292634; conditions: in combination with TKIs; cited from earlier work

- AUCinf, Mean (%CV) ([1]; Cycle 1 Day 1 (n = 17)): 23.0 (34%) µg×h/mL
- AUClast, Mean (%CV) ([1]; Cycle 1 Day 1 (n = 17)): 22.6 (34%) µg×h/mL
- Tmax, median (range) ([1]; Cycle 1 Day 1 (n = 17)): 1.08 [1.03 – 1.33] hours
- Cmax, Mean (%CV) ([1]; Cycle 1 Day 1 (n = 17)): 12.60 (42%) µg/mL
- AUCinf, Mean (%CV) ([1]; Cycle 1 Day 15 (n = 15)): 23.7 (38%) ^A µg×h/mL
- AUClast, Mean (%CV) ([1]; Cycle 1 Day 15 (n = 15)): 22.4 (35%) ^A µg×h/mL
- Half-life (terminal phase t1/2), Mean (%CV) ([1]; Cycle 1 Day 15 (n = 15)): 5.1 (38%) ^A h
- Tmax, median (range) ([1]; Cycle 1 Day 15 (n = 18)): 1.17 [1.03 – 2.23] hours
- Cmax, Mean (%CV) ([1]; Cycle 1 Day 15 (n = 18)): 11.83 (47%) µg/mL
- pre-dose plasma concentrations ([1]; day 15): negligible
Compound: Cc1c(O)ccc2c1OC[C@@H](c1ccc(O)cc1)[C@H]2c1ccc(O)cc1 [ME-344]
- dose limiting toxicity (solid tumors; at higher doses than 10 mg/kg): peripheral neuropathy
- recommended phase 2 dose (solid tumors; intravenously (IV) once weekly for 3 weeks in a 28-day cycle): 10 mg/kg
- tolerability [2]: well tolerated
- succinate dehydrogenase and HIF1α staining [3]: decrease
- antiproliferative activity [4]: broad antiproliferative activity
- tumor control [5]: synergistic tumor control
